Columns and labels:
[1] = tested on: MCF-7 human breast cancer cells; assay: MTT cell viability assay, MCF-7; type: cell-based; settings: for IC50: Homo sapiens, MCF7, MTT, 72 h, mean ± SD of three experiments; for SI MCF-7: ratio of IC50 values for normal (MCF-10A) and cancer cells (MCF-7)
Protocol: (§1) The three cell lines adopted in this work (MCF-7, MDA-MB-231 and MCF-10A) were obtained from the American Type Culture Collection (ATCC, Manassas, VA, USA). MCF-7 human breast cancer cells were cultured in Dulbecco’s modified Eagle’s medium/nutrient mixture Ham F-12 (DMEM/F12), added with 10% fetal bovine serum (FBS) and 100 U mL^−1 penicillin/streptomycin. MDA-MB-231 human breast cancer cells were maintained in DMEM/F12 added with 5% FBS, 1% L-glutamine and 100 U mL^−1 penicillin/streptomycin. MCF-10A human mammary epithelial cells were cultured in DMEM/F12 medium added with 5% horse serum (HS, Thermo Fisher Scientific, Milan, Italy), 100 U mL^−1 penicillin/streptomycin, 0.5 mg mL^−1 hydrocortisone, 20 ng mL^−1 human epidermal growth factor (hEGF), 10 mg mL^−1 insulin, and 0.1 mg mL^−1 cholera enterotoxin (Sigma–Aldrich, Milan, Italy). Cells were cultured at 37 °C in a humidified atmosphere (95% air and 5% CO2) and periodically screened for checking contamination.
(§2) The 3-(4,5-dimethylthiazol-2-y1)-2,5-diphenyltetrazolium Bromide (MTT, Sigma–Aldrich, Milan, Italy) assay was used for determining cell viability. Cells were seeded on forty-eight well plates and cultured in a complete medium. Next, cells were serum-deprived (24 h). Then, cells were exposed to the tested compounds in phenol-red-free medium added with 1% of serum for 72 h. After medium removal, MTT solution was added to each well (0.5 mg/mL) and incubated at 37 °C (2 h). Cells were lysed (DMSO), and the optical density was measured (570 nm) using a microplate reader. Mean absorbance was reported as a percentage versus control, and IC50 values were calculated using GraphPad Prism 8 software (version 8.4.3., GraphPad Inc., San Diego, CA, USA). The selectivity index was obtained by the ratio of IC50 values calculated for normal and cancer cells. Data represent three independent experiments; standard deviations (SD) were reported.

[2] = tested on: MDA-MB-231 human breast cancer cells; assay: MTT cell viability assay, MDA-MB-231; type: cell-based; settings: for IC50: Homo sapiens, MDA-MB-231, MTT, 72 h, mean ± SD of three experiments
Protocol: as §1, §2

[3] = tested on: MCF-10A human mammary epithelial cells; assay: MTT cell viability assay, MCF-10A; type: cell-based; settings: 72 h, normal cells, mean ± SD of three experiments
Protocol: as §1, §2

MDA-MB-231 cells = assay: TUNEL assay (nuclear DNA damage / apoptosis); type: cell-based, human; settings: 0.3 µM, 24 h
Protocol: The TUNEL assay was used for apoptosis detection, according to the manufacturer’s instructions (CF^TM488A TUNEL Assay Apoptosis Detection Kit, Biotium, Hayward, CA, USA), with some modifications (ref). Shortly, cells were grown on glass coverslips, then treated with 1 at its IC50 value. After that, they were PBS washed thrice, then methanol-fixed (−20 °C, 15 min). Cells were fixed and incubated with the enzyme and, next, counterstained with DAPI (0.2 mg mL^−1) (10 min, room temperature). Cells were washed three times with cold PBS; the mounting solution was added and observed and imaged using a fluorescence microscope (Leica DM6000, Leica Microsystems Srl, Milan, I-20090, Italy; 20× magnification) with excitation/emission wavelength maxima of 490 nm/515 nm (CF^TM488A) or 350 nm/460 nm (DAPI). Images represent two independent experiments, and representative fields were shown.

caspase-3/7 = assay: Caspase-Glo 3/7 assay; type: cell-based, human; settings: MDA-MB-231 cells, 0.3 µM, 24 h, versus DMSO-treated cells
Protocol: (§3) Caspases-3/7, -8, and -9 activities were determined using the Caspase-Glo® 3/7, 8, and 9 Assay Systems (Promega Corporation, Madison, WI, USA) as previously described.

caspase-8 = assay: Caspase-Glo 8 assay; type: cell-based, human; settings: MDA-MB-231 cells, 0.3 µM, 24 h, versus DMSO-treated cells
Protocol: as §3

caspase-9 = assay: Caspase-Glo 9 assay; type: cell-based, human; settings: MDA-MB-231 cells, 0.3 µM, 24 h, versus DMSO-treated cells
Protocol: as §3

Bid = Bid immunofluorescence and mitochondria staining; type: cell-based, human; settings: MDA-MB-231 cells, 0.3 µM, 24 h
Protocol: (§4) Cells grown on glass coverslips in full medium were serum-deprived for 24 h and exposed to 1 for 24 h at its IC50 value concentration. Cells were PBS-washed and fixed (cold methanol, 15 min, −20 °C), then primary antibody in blocking solution was added (4 °C/overnight), as described. The mouse anti-Bid (sc-373939) and anti-β-Actin (69879) and the rabbit anti-β Tubulin (9104) were obtained from Santa Cruz Biotechnology and employed at a 1:100 dilution. Coverslips were washed thrice with PBS, then the secondary antibody Alexa Fluor® 568 conjugate goat-anti-mouse and Alexa Fluor® 488 conjugate goat-anti-rabbit (1:500, Thermo Fisher Scientific, Waltham, MA, USA) was added. Nuclei were DAPI (Sigma Aldrich, Mila, Italy) stained (10 min, 0.2 μg/mL) and PBS washed thrice. For mitochondrial staining, cells were pre-incubated with prewarmed (37 °C) MitoTracker® Deep Red FM probe solution (MitoTracker® Mitochondrion-Selective Probes, Invitrogen European Headquarters, Paisley PA4 9RF, UK) for 20 min (fluorescence excitation = 644, fluorescence emission = 665). A fluorescence microscope (Leica DM 6000) and LAS-X software (Leica Application Suite X, 3.5.7.23225) were used to acquire and process all images.

tubulin = assay: In vitro tubulin polymerization assay; type: biochemical; settings: for final OD350 value of tubulin polymerization: control reaction (DMSO) about 0.41
Protocol: The tubulin polymerization inhibition was detected using the in vitro Tubulin Polymerization Assay Kit (EMD Millipore Corporation, Burlington, MA, USA), following the procedure previously published. Briefly, polymerization reactions were performed in 70 µL final volumes (60 µL of the 60 µM tubulin in 1xPB-GTP and 10 µL of the test substance dissolved in 1xPB-GTP). Paclitaxel and Vinblastine (both at 10 µM) and 1 (1 µM) were dissolved in DMSO. The turbidity variation was measured every 30 s at 350 nm for 90 min. Turbidity (absorbance) readings were used to determine the extent of polymerization [% inhibition = (1 − A350 sample/A350 control) × 100].

[4] = tested on: microtubule network in MDA-MB-231 cells; assay: β-tubulin immunofluorescence; type: cell-based, human; settings: 24 h
Protocol: as §4

[5] = tested on: actin network in MDA-MB-231 cells; assay: β-actin immunofluorescence; type: cell-based, human; settings: 0.3 µM, 24 h
Protocol: as §4

Balb/c mice = assay: In vivo safety study, one-week intraperitoneal administration; set-up: species or system mouse; settings: 20 mg/kg i.p.
Protocol: Animals: The study utilized male Balb/c mice aged 6–8 weeks, with weights ranging from 22 to 26 g. These mice were sourced from a reputable supplier and maintained in a certified pathogen-free facility. They were housed in polycarbonate cages under controlled environmental conditions (temperature: 20–22 °C; humidity: 40–60%) with a 12 h light/dark cycle. Mice had ad libitum access to filtered water and a standard rodent chow diet, ensuring their nutritional needs were met throughout the study.
Preparation of Test Item: The investigational solution that contains the compound 1 was prepared before administration to ensure its stability and efficacy. The preparation involved dissolving compound 1 in a solvent mixture comprising 5% ethanol and Cremophor, diluted in 95% phosphate-buffered saline (PBS). […] All solutions were prepared in a sterile environment to minimize the risk of contamination.
Experimental Design: Mice were randomly assigned to one of two experimental groups to eliminate bias in treatment effects. Group 1 (negative control) consisted of six mice that received intraperitoneal injections of the vehicle solvent (5% ethanol–Cremophor in 95% PBS). Group 2 (compound 1 treatment group) comprised seven mice receiving compound 1 at a dosage of 20 mg/kg body weight, administered via intraperitoneal injection. The dosage was selected based on preliminary dose–response studies ensuring safety and efficacy.
Treatment Protocol: The treatment regimen involved administering injections every two days over a one-week period, culminating in a total of three injections per mouse. This schedule was designed to maintain consistent therapeutic levels of compound 1 in the bloodstream, providing sufficient time for both pharmacological effects and assessment of any potential adverse reactions.
Assessment Parameters: Behavioral observations were meticulously recorded on a daily basis throughout the treatment period. Trained personnel monitored the mice for signs of toxicity or any deviations from normal behavior, including changes in activity levels, grooming patterns, and feeding behavior [35]. Body weight was measured at baseline prior to treatment, immediately before each injection, and at the conclusion of the treatment period to assess any potential effects of compound 1 on growth and overall health.
After the treatment phase, mice were humanely euthanized using approved methods to minimize distress. Major organs, including the spleen, liver, lungs, brain, heart, and kidneys, were carefully excised, weighed, and subjected to morphological examination to identify any structural abnormalities or pathological changes. The organ coefficients were calculated using the following formula:Organ Coefficient (mg/10 g) = 10 × […]/weight of the mouse.
Blood samples were collected post-euthanasia using heparinized tubes to prevent coagulation. Following collection, samples were centrifuged at 1500 rpm for 7 min to separate the plasma, which was then used for biochemical analysis. A clinical chemistry analyzer measured various parameters, including transaminases (AST, ALT), creatinine, uric acid, and key electrolytes (sodium, potassium, chloride, calcium, and phosphorus), alongside alkaline phosphatase levels. Hematological evaluations were performed, including red blood cell (RBC) counts, hemoglobin (HB) levels, hematocrit (HCT), mean corpuscular hemoglobin (MCH), and white blood cell (WBC) counts.

[6] = Hydrolytic stability test by 1H NMR; type: physicochemical
Protocol: ^1H NMR spectra were recorded at 298 K on a Bruker Avance 400 spectrometer operating at 400 MHz (^1H) and referred to the residual proton deuterated solvent peaks (^1H: (CD3)2SO, δ 2.50).
The hydrolytic chemical stability is an important step in early drug discovery for ensuring the potential development of compounds useful in therapy. […]

## Cc1cc(C=NN=Cc2cc(C)c3[nH]c4ccc(Br)cc4c3c2C)c(C)c2c1[nH]c1ccc(Br)cc12 [Compound 1, N,N’-bis-(6-bromo-1,4-dimethyl-9H-carbazol-3-ylmethylene)-hydrazine]
[1]
  IC50: 0.6 ± 0.3 µM
  SI MCF-7: >166.7
[2]
  IC50: 0.3 ± 0.2 µM
[2]; ratio of IC50 values for normal (MCF-10A) and cancer cells (MDA-MB-231)
  SI MDA-MB-231: >333.3
[3]
  IC50: > 100 µM
MDA-MB-231 cells
  TUNEL staining (nuclear DNA damage): TUNEL-positive
caspase-3/7
  increase of caspase-3 and -7 activity: about 70%
caspase-8
  increase of caspase-8 activity: about 60%
caspase-9
  increase of caspase-9 activity: 40%
Bid
  Bid localization: net translocation of Bid into the mitochondrial compartment
tubulin; 1 µM
  effect on tubulin polymerization reaction: acts as a microtubule stabilizer
  final OD350 value of tubulin polymerization: 0.48
[4]; 0.3 µM
  microtubule network morphology: net disorganization of the microtubule network
[5]
  actin network morphology: formation of thicker actin bundles
Balb/c mice; one week
  behavior: normal behavioral patterns
  lung coefficient versus negative control: notable increase
  toxic effects related to treatment: no observable toxic effects
Balb/c mice; one week, p > 0.05
  body weight change versus negative control: no significant differences
  hematological parameters (WBC, RBC, HB, HCT, MCV, MCH, MCHC, platelet counts) versus control: no significant differences
  organ weights (spleen, liver, brain, heart, kidney, lung) versus negative control: no significant differences
  serum AST, ALT, creatinine, uric acid and electrolyte profiles versus control: comparable
Balb/c mice; three injections over one week
  organ weight coefficient Brain: 0.13 ± 0.03 10× g (organ)/g(animal)
  organ weight coefficient Heart: 0.06 ± 0.01 10× g (organ)/g(animal)
  organ weight coefficient Kidney: 0.07 ± 0.01 10× g (organ)/g(animal)
  organ weight coefficient Liver: 0.54 ± 0.03 10× g (organ)/g(animal)
  organ weight coefficient Lung: 0.11 ± 0.01 10× g (organ)/g(animal)
  organ weight coefficient Spleen: 0.07 ± 0.02 10× g (organ)/g(animal)
[6]; DMSO-d6/D2O (90:10), 37 °C, 24 h
  hydrolytic stability (1H NMR spectra changes): no changes were recorded
[6]; solid state
  stability in the solid state: stable in the solid state even years after synthesis

## Cc1c2ccncc2c(C)c2c1[nH]c1ccccc12 [Ellipticine]
[1]
  IC50: 1.3 ± 0.2 µM
  SI MCF-7: 0.9
[2]
  IC50: 1.9 ± 0.1 µM
[3]
  IC50: 1.2 ± 0.3 µM

## CC(=O)O[C@H]1C(=O)[C@@]2(C)[C@H]([C@H](OC(=O)c3ccccc3)[C@]3(O)C[C@H](OC(=O)[C@H](O)[C@@H](NC(=O)c4ccccc4)c4ccccc4)C(C)=C1C3(C)C)[C@]1(OC(C)=O)CO[C@@H]1C[C@@H]2O [Paclitaxel]
[1]
  IC50: 0.013 µM
  SI MCF-7: 33.7
[2]
  IC50: 0.019 µM
[3]
  IC50: 0.64 µM
tubulin; 10 µM
  final OD350 value of tubulin polymerization: about 0.46
[4]; 1 µM
  microtubule network morphology: massive formation of tubulin bundles and bulker fibers

## CC[C@]1(O)C[C@@H]2CN(CCc3c([nH]c4ccccc34)[C@@](C(=O)OC)(c3cc4c(cc3OC)N(C)[C@H]3[C@@](O)(C(=O)OC)[C@H](OC(C)=O)[C@]5(CC)C=CCN6CC[C@]43[C@@H]65)C2)C1 [Vinblastine]
[1]
  IC50: 0.0368 µM
  SI MCF-7: 0.13
[2]
  IC50: 0.13 µM
[3]
  IC50: 0.0172 µM
tubulin; 10 µM
  effect on tubulin polymerization reaction: strongly inhibited
  time to reach the steady state of tubulin polymerization: 35 to 40 min
  final OD350 value of tubulin polymerization: about 0.2
[4]; 1 µM
  microtubule network morphology: accumulate in disorganized dotted structures (i.e., crystals)

From paper PMC12030284, “Anti-Breast Cancer Properties and In Vivo Safety Profile of a Bis-Carbazole Derivative” (Pharmaceutics, 2025)
